Measured values as given in ChEMBL document CHEMBL1201861, “Genomics of Drug Sensitity in Cancer screening data, Wellcome Trust Sanger Institute”.

What was measured:
Test in all cases: cells
[1] = tested on: QIMR-WIL; type: functional, cell-based; details: Homo sapiens;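 further: growth inhibition of QIMR-WIL cells, read out with a cell viability assay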
Description: SANGER: Inhibition of human QIMR-WIL cell growth in a cell viability assay.

[2] = tested on: RPMI-7951; type: functional, cell-based, Homo sapiens; details: Homo sapiens, RPMI-7951
Description: SANGER: Inhibition of human RPMI-7951 cell growth in a cell viability assay.

[3] = tested on: BB49-HNC; type: functional, cell-based, Homo sapiens; details: Homo sapiens, BB49-HNC;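 further: cell viability assay read-out, reported as inhibition of BB49-HNC cell growth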
Description: SANGER: Inhibition of human BB49-HNC cell growth in a cell viability assay.

[4] = tested on: SW1417; type: functional, cell-based, Homo sapiens; details: Homo sapiens, SW1417;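 further: growth inhibition of human SW1417 cells, read out with a cell viability assay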
Description: SANGER: Inhibition of human SW1417 cell growth in a cell viability assay.

[5] = tested on: NCI-H2452; type: functional, cell-based, Homo sapiens; details: Homo sapiens, NCI-H2452;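 further: growth inhibition of NCI-H2452 cells, read out with a cell viability assay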
Description: SANGER: Inhibition of human NCI-H2452 cell growth in a cell viability assay.

[6] = tested on: YKG-1; type: functional, cell-based, Homo sapiens; details: Homo sapiens, YKG-1;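 further: cell growth inhibition, read out with a viability assay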
Description: SANGER: Inhibition of human YKG-1 cell growth in a cell viability assay.

[7] = tested on: GR-ST; type: functional, cell-based; details: Homo sapiens
Description: SANGER: Inhibition of human GR-ST cell growth in a cell viability assay.

[8] = tested on: IST-MEL1; type: functional, cell-based, Homo sapiens; details: Homo sapiens, IST-MEL1;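 further: growth inhibition of the cell line, read out with a cell viability assay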
Description: SANGER: Inhibition of human IST-MEL1 cell growth in a cell viability assay.

[9] = tested on: RH-1; type: functional, cell-based, Homo sapiens; details: Homo sapiens, RH-1;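 further: growth inhibition of human RH-1 cells, read out with a cell viability assay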
[10] = tested on: EW-13; type: functional, cell-based; details: Homo sapiens;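 further: growth inhibition of EW-13 cells, read out with a cell viability assay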
Description: SANGER: Inhibition of human EW-13 cell growth in a cell viability assay.

[11] = tested on: EW-11; type: functional, cell-based, Homo sapiens; details: Homo sapiens, EW-11;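 further: growth inhibition of human EW-11 cells, measured with a cell viability assay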
Description: SANGER: Inhibition of human EW-11 cell growth in a cell viability assay.

[12] = tested on: SW 962; type: functional, cell-based, Homo sapiens; details: Homo sapiens, SW 962;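 further: growth inhibition of human SW962 cells, read out by a cell viability assay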
Description: SANGER: Inhibition of human SW962 cell growth in a cell viability assay.

[13] = tested on: MOLT-16; type: functional, cell-based; details: Homo sapiens;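 further: growth inhibition of human MOLT-16 cells, read out with a cell viability assay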
Description: SANGER: Inhibition of human MOLT-16 cell growth in a cell viability assay.

[14] = tested on: KU812 cell line; type: functional, cell-based; details: Homo sapiens;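 further: growth inhibition of KU812 cells, read out with a cell viability assay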
Description: SANGER: Inhibition of human KU812 cell growth in a cell viability assay.

[15] = tested on: MFH-ino; type: functional, cell-based; details: Homo sapiens;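 further: growth inhibition of human MFH-ino cells, read out by a cell viability assay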
Description: SANGER: Inhibition of human MFH-ino cell growth in a cell viability assay.

[16] = tested on: HL-60; type: functional, cell-based; details: Homo sapiens;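 further: growth inhibition of human HL-60 cells, read out with a cell viability assay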
Description: SANGER: Inhibition of human HL-60 cell growth in a cell viability assay.

[17] = tested on: NCI-H1304; type: functional, cell-based; details: Homo sapiens;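 further: growth inhibition of the cancer cell line, measured in a cell viability assay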
Description: SANGER: Inhibition of human NCI-H1304 cell growth in a cell viability assay.

[18] = tested on: KYSE-410; type: functional, cell-based, Homo sapiens; details: Homo sapiens, KYSE-410;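 further: growth inhibition of KYSE-410 cells, measured through a cell viability readout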
Description: SANGER: Inhibition of human KYSE-410 cell growth in a cell viability assay.

[19] = tested on: SK-N-FI; type: functional, cell-based, Homo sapiens; details: Homo sapiens, SK-N-FI;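 further: cell viability assay measuring growth inhibition of human SK-N-FI cells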
Description: SANGER: Inhibition of human SK-N-FI cell growth in a cell viability assay.

[20] = tested on: SW780; type: functional, cell-based, Homo sapiens; details: Homo sapiens, SW780;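 further: growth inhibition of the cells, read out with a cell viability assay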
[21] = tested on: MOLT-4; type: functional, cell-based; details: Homo sapiens;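 further: growth inhibition of MOLT-4 cells, determined with a cell viability readout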
Description: SANGER: Inhibition of human MOLT-4 cell growth in a cell viability assay.

[22] = tested on: ML-2; type: functional, cell-based; details: Homo sapiens;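 further: growth inhibition of ML-2 cells, measured with a cell viability readout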
Description: SANGER: Inhibition of human ML-2 cell growth in a cell viability assay.

[23] = tested on: GI-1; type: functional, cell-based, Homo sapiens; details: Homo sapiens, GI-1;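 further: growth inhibition of human GI-1 cells, measured with a cell viability readout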
Description: SANGER: Inhibition of human GI-1 cell growth in a cell viability assay.

[24] = tested on: RS4-11; type: functional, cell-based; details: Homo sapiens;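 further: growth inhibition of RS4-11 cells, read out by a cell viability assay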
Description: SANGER: Inhibition of human RS4-11 cell growth in a cell viability assay.

[25] = tested on: SK-OV-3; type: functional, cell-based, Homo sapiens; details: Homo sapiens, SK-OV-3;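 further: growth inhibition of SK-OV-3 human cells, read out with a cell viability assay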
Description: SANGER: Inhibition of human SK-OV-3 cell growth in a cell viability assay.

[26] = tested on: HPAF-II; type: functional, cell-based, Homo sapiens; details: Homo sapiens, HPAF-II;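 further: growth inhibition of HPAF-II cells, read out with a cell viability assay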
Description: SANGER: Inhibition of human HPAF-II cell growth in a cell viability assay.

[27] = tested on: LB2518-MEL; type: functional, cell-based, Homo sapiens; details: Homo sapiens, LB2518-MEL;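 further: growth inhibition of human LB2518-MEL cells, measured with a cell viability assay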
Description: SANGER: Inhibition of human LB2518-MEL cell growth in a cell viability assay.

[28] = tested on: MHH-NB-11; type: functional, cell-based, Homo sapiens; details: Homo sapiens, MHH-NB-11;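 further: growth inhibition of human MHH-NB-11 cells, read out by a cell viability assay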
Description: SANGER: Inhibition of human MHH-NB-11 cell growth in a cell viability assay.

[29] = tested on: NB7; type: functional, cell-based; details: Homo sapiens;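 further: growth inhibition of NB7 cells, read out with a cell viability assay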
Description: SANGER: Inhibition of human NB7 cell growth in a cell viability assay.

[30] = tested on: TE-5; type: functional, cell-based, Homo sapiens; details: Homo sapiens, TE-5;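 further: inhibition of cell growth, read out by a cell viability assay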
Description: SANGER: Inhibition of human TE-5 cell growth in a cell viability assay.

[31] = tested on: 5637; type: functional, cell-based, Homo sapiens; details: Homo sapiens
Description: SANGER: Inhibition of human 5637 cell growth in a cell viability assay.

[32] = tested on: BFTC-909; type: functional, cell-based, Homo sapiens; details: Homo sapiens, BFTC-909
Description: SANGER: Inhibition of human BFTC-909 cell growth in a cell viability assay.

[33] = tested on: D283 Med; type: functional, cell-based, Homo sapiens; details: Homo sapiens, D283 Med
Description: SANGER: Inhibition of human D-283MED cell growth in a cell viability assay.

[34] = tested on: T84; type: functional, cell-based, Homo sapiens; details: Homo sapiens, T84;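 further: growth inhibition measured with a cell viability readout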
Description: SANGER: Inhibition of human T84 cell growth in a cell viability assay.

[35] = tested on: BT-20; type: functional, cell-based, Homo sapiens; details: Homo sapiens, BT-20;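 further: cell viability assay measuring suppression of growth in human BT-20 cells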
Description: SANGER: Inhibition of human BT-20 cell growth in a cell viability assay.

[36] = tested on: KG-1; type: functional, cell-based; details: Homo sapiens;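 further: growth inhibition of KG-1 cells, read out by a cell viability assay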
Description: SANGER: Inhibition of human KG-1 cell growth in a cell viability assay.

[37] = tested on: SW 954; type: functional, cell-based, Homo sapiens; details: Homo sapiens, SW 954;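 further: growth inhibition of SW954 human cancer cells, read out as cell viability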
Description: SANGER: Inhibition of human SW954 cell growth in a cell viability assay.

[38] = tested on: SK-MEL-24; type: functional, cell-based; details: Homo sapiens;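 further: growth inhibition read out by a cell viability assay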
Description: SANGER: Inhibition of human SK-MEL-24 cell growth in a cell viability assay.

[39] = tested on: CHL-1; type: functional, cell-based, Homo sapiens; details: Homo sapiens, CHL-1;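 further: cell growth inhibition, read out with a cell viability assay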
Description: SANGER: Inhibition of human CHL-1 cell growth in a cell viability assay.

[40] = tested on: ES5; type: functional, cell-based, Homo sapiens; details: Homo sapiens, ES5;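 further: growth inhibition of human ES5 cells, read out by a cell viability assay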
[41] = tested on: T47D; type: functional, cell-based, Homo sapiens; details: Homo sapiens, T47D;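 further: growth inhibition of human T47D cells, measured with a cell viability assay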
Description: SANGER: Inhibition of human T47D cell growth in a cell viability assay.

[42] = tested on: VA-ES-BJ; type: functional, cell-based, Homo sapiens; details: Homo sapiens, VA-ES-BJ;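 further: growth inhibition of the VA-ES-BJ cell line, read out by a cell viability assay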
Description: SANGER: Inhibition of human VA-ES-BJ cell growth in a cell viability assay.

[43] = tested on: OVCAR-4; type: functional, cell-based, Homo sapiens; details: Homo sapiens, OVCAR-4;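 further: growth inhibition of human OVCAR-4 cells, measured with a cell viability assay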
Description: SANGER: Inhibition of human OVCAR-4 cell growth in a cell viability assay.

[44] = tested on: HSC-3; type: functional, cell-based, Homo sapiens; details: Homo sapiens, HSC-3
Description: SANGER: Inhibition of human HSC-3 cell growth in a cell viability assay.

[45] = tested on: KYSE-150 cell line; type: functional, cell-based, Homo sapiens; details: Homo sapiens, KYSE-150;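 further: growth inhibition of human KYSE-150 cells, read out with a cell viability assay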
Description: SANGER: Inhibition of human KYSE-150 cell growth in a cell viability assay.

[46] = tested on: NCI-H69; type: functional, cell-based; details: Homo sapiens;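 further: growth inhibition of the cell line, read out with a cell viability assay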
Description: SANGER: Inhibition of human NCI-H69 cell growth in a cell viability assay.

[47] = tested on: HOP-92; type: functional, cell-based, Homo sapiens; details: Homo sapiens, HOP-92;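 further: cell viability readout, with IC50 reflecting inhibition of HOP-92 cell growth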
Description: SANGER: Inhibition of human HOP-92 cell growth in a cell viability assay.

[48] = tested on: DBTRG-05MG; type: functional, cell-based, Homo sapiens; details: Homo sapiens, DBTRG-05MG;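 further: cell viability assay measuring growth inhibition of human DBTRG-05MG cells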
Description: SANGER: Inhibition of human DBTRG-05MG cell growth in a cell viability assay.

[49] = tested on: SK-HEP1; type: functional, cell-based, Homo sapiens, SK-HEP-1; details: Homo sapiens, SK-HEP1;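 further: cell viability readout used to quantify reduction in proliferation of human SK-HEP-1 cells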
Description: SANGER: Inhibition of human SK-HEP-1 cell growth in a cell viability assay.

[50] = tested on: MDA-MB-231; type: functional, cell-based, Homo sapiens; details: Homo sapiens, MDA-MB-231
Description: SANGER: Inhibition of human MDA-MB-231 cell growth in a cell viability assay.

[51] = tested on: HO-1-N-1; type: functional, cell-based, Homo sapiens; details: Homo sapiens, HO-1-N-1;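 further: growth inhibition of human HO-1-N-1 cells, read out with a cell viability assay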
Description: SANGER: Inhibition of human HO-1-N-1 cell growth in a cell viability assay.

## CN(C)C/C=C/C(=O)Nc1cc2c(Nc3ccc(F)c(Cl)c3)ncnc2cc1O[C@H]1CCOC1 [AFATINIB]
[1]
  IC50: > 500 nM
[2]
  IC50: > 500 nM
[3]
  IC50: > 500 nM
[4]
  IC50: > 500 nM
[5]
  IC50: > 500 nM
[6]
  IC50: > 500 nM
[7]
  IC50: > 500 nM
[8]
  IC50: > 500 nM
[9]
  IC50: > 500 nM
[10]
  IC50: > 500 nM
[11]
  IC50: > 500 nM
[12]
  IC50: > 500 nM
[13]
  IC50: > 500 nM
[14]
  IC50: 155 nM
[15]
  IC50: > 500 nM
[16]
  IC50: > 500 nM
[17]
  IC50: > 500 nM
[18]
  IC50: > 500 nM
[19]
  IC50: > 500 nM
[20]
  IC50: > 500 nM
[21]
  IC50: > 500 nM
[22]
  IC50: 248 nM
[23]
  IC50: > 500 nM
[24]
  IC50: > 500 nM
[25]
  IC50: > 500 nM
[26]
  IC50: > 500 nM
[27]
  IC50: > 500 nM
[28]
  IC50: > 500 nM
[29]
  IC50: > 500 nM
[30]
  IC50: > 500 nM
[31]
  IC50: > 500 nM
[32]
  IC50: > 500 nM
[33]
  IC50: > 500 nM
[34]
  IC50: > 500 nM
[35]
  IC50: > 500 nM
[36]
  IC50: > 500 nM
[37]
  IC50: > 500 nM
[38]
  IC50: > 500 nM
[39]
  IC50: 18.4 nM
[40]
  IC50: > 500 nM
[41]
  IC50: > 500 nM
[42]
  IC50: > 500 nM
[43]
  IC50: > 500 nM
[44]
  IC50: 212 nM
[45]
  IC50: > 500 nM
[46]
  IC50: 215 nM
[47]
  IC50: > 500 nM
[48]
  IC50: > 500 nM
[49]
  IC50: > 500 nM
[50]
  IC50: > 500 nM
[51]
  IC50: 279 nM

## Nc1ccn([C@@H]2O[C@H](CO)[C@@H](O)[C@@H]2O)c(=O)n1 [CYTARABINE]
[1]
  IC50: > 2000 nM
[2]
  IC50: 340 nM
[3]
  IC50: > 2000 nM
[4]
  IC50: > 2000 nM
[5]
  IC50: > 2000 nM
[6]
  IC50: 298 nM
[7]
  IC50: 385 nM
[8]
  IC50: 381 nM
[9]
  IC50: 328 nM
[10]
  IC50: 1980 nM
[12]
  IC50: > 2000 nM
[13]
  IC50: 36.1 nM
[14]
  IC50: > 2000 nM
[15]
  IC50: > 2000 nM
[16]
  IC50: > 2000 nM
[17]
  IC50: > 2000 nM
[18]
  IC50: > 2000 nM
[19]
  IC50: > 2000 nM
[20]
  IC50: 1320 nM
[21]
  IC50: 89.7 nM
[22]
  IC50: 270 nM
[23]
  IC50: 339 nM
[24]
  IC50: 381 nM
[25]
  IC50: > 2000 nM
[26]
  IC50: > 2000 nM
[27]
  IC50: > 2000 nM
[28]
  IC50: 728 nM
[29]
  IC50: 1520 nM
[30]
  IC50: 381 nM
[31]
  IC50: 501 nM
[32]
  IC50: 357 nM
[33]
  IC50: 360 nM
[34]
  IC50: > 2000 nM
[35]
  IC50: > 2000 nM
[36]
  IC50: 1160 nM
[37]
  IC50: > 2000 nM
[38]
  IC50: > 2000 nM
[39]
  IC50: 1040 nM
[40]
  IC50: 243 nM
[41]
  IC50: > 2000 nM
[42]
  IC50: 71.7 nM
[43]
  IC50: > 2000 nM
[44]
  IC50: 400 nM
[45]
  IC50: > 2000 nM
[46]
  IC50: > 2000 nM
[47]
  IC50: 354 nM
[48]
  IC50: > 2000 nM
[49]
  IC50: 556 nM
[50]
  IC50: > 2000 nM
[51]
  IC50: 691 nM
